Results taken from publication PMC7261835, “New Brilliant Blue G Derivative as Pharmacological Tool in Retinal Surgery” (Frontiers in Pharmacology, 2020).

Experiments:
[1] = test system: purinergic ionotropic P2X7 receptor; set-up: method as in Bartlett et al., 2014; conditions: ref Bartlett et al., 2014; cited from earlier work
[2] = test system: proteins (fibronectin proteolytic fragment 45 kDa, E. coli beta-galactosidase, bovine serum albumin, chicken ovalbumin, equine cytochrome C); experiment: Dye protein affinity assay: SDS-PAGE staining intensity, densitometry; type: binding; conditions: SDS-page protein bands, dyes 0.025% in fixative; compared to BBG and Me-BBG; p < 0.05
Procedure: In order to have the same dye/protein molar ratio for dye protein affinity assay, a set of molecular weight standards was obtained by mixing 430 nmol of the following proteins: i. fibronectin proteolytic fragment 45 kDa; ii. E. coli beta-galactosidase 116.3 kDa; iii. bovine serum albumin 66.5 kDa; iv. chicken ovalbumin 42.7 kDa; v. equine cytochrome C 12.3 kDa. Polyacrylamide gel electrophoresis was carried out loading the molecular weight standard in a 9% precast gels (Biorad), as triplicates on separate lanes. Gel electrophoresis was carried out at 20V for 60–90 min in denaturing conditions. After runs, each lane was cut and soaked overnight in a different staining solution, consisting of dyes dissolved at 0.025% in gel fixative solution (40% methanol, 20% acetic acid). Thereafter, gel lanes were decolored in the fixative solution without dyes, until the background stain reached the minimum level compared to stained protein bands. Images were collected with a scanner at 300 dpi, 16M colors. Densitometric analysis was done using the software ImageJ ([Rueden et al., 2017]). LogD values (pH 7.4) were calculated in silico using ACD/Labs software (version 11.1 2008, ACD Labs). […]

[3] = Ex vivo model of vitreoretinal surgery, dye quantification in retina by HPLC; set-up: species or system swine; conditions: porcine eye ex vivo, 40 µl of 0.05% PBB formulation, removed after 30 s, after ILM peeling
Description: (§1) Ex vivo model of vitreoretinal surgery has been previously reported for evaluation of indocyanine green ILM staining properties ([Nakamura et al., 2003]). We carried out on swine eyes the same procedure previously reported on primates, with slight modifications. The following formulations have been tested in the ex vivo model of vitreoretinal surgery: Brilliant PeelTM (0.025% Brilliant Blue G BBG; Fluoron, Ulm, Germany); ILM-BlueTM (0.025% Brilliant Blue G; Dutch Ophthalmic Research Center (International) […], Italy); View-ILM® (0.03% methyl-Brilliant Blue […], Ponte San Nicolò-Padova, Italy); PBB® (0.05% Pure benzyl-Brilliant Blue G; Alfa-Instruments, Casoria, Italy). […] The levels of the dye molecules were quantified by means of HPLC analysis. […] The dried residue was reconstituted in 100 μl of mobile phase by vortexing for 120 s, filtered again on 0.45 μm filters, and, finally, 10-20 μl aliquots were injected into the chromatographic apparatus (each sample was analyzed in triplicate). […] BBG, Me-BBG, and PBB® were analyzed using three different isocratic ternary mobile phases consisting of (A) acetonitrile, (B) methanol, and (C) triethylamine 0.3% (v/v) in water (pH adjusted to 3.0 with trifluoroacetic acid) with different proportions (A:B:C) as follows: BBG 49:5:46 (v/v/v); Me-BBG 54:5:41 (v/v/v); PBB® 62:5:33 (v/v/v). […]

[4] = Ex vivo model of vitreoretinal surgery, dye quantification in ILM by HPLC; set-up: species or system swine; conditions: porcine eye ex vivo, 40 µl, 30 s
Description: as §1

SMILES | P2X7 receptor antagonism [1] | Protein binding quantified as staining intensity (% staining, % of control BBG) [2] | dye levels in the retina [3] [ng/mg] | dye content in ILM compared to Brilliant Peel formulation (BBG) [4] | fold increase of ILM dye levels compared to Me-BBG (View ILM) formulation ([4]; p < 0.05) [fold]
CCOc1ccc(Nc2ccc(/C(=C3C=C/C(=[N+](/CC)Cc4cccc(S(=O)(=O)[O-])c4)C=C/3C)c3ccc(N(CC)Cc4cccc(S(=O)(=O)O)c4)cc3C)cc2)cc1 [Entry 1, Brilliant Blue G] | potent selective non-competitive antagonist |  |  |  | 
CCOc1ccc(N(Cc2ccccc2)c2ccc(C(=C3C=CC(=[N+](CC)Cc4cccc(S(=O)(=O)[O-])c4)C=C3C)c3ccc(N(CC)Cc4cccc(S(=O)(=O)O)c4)cc3C)cc2)cc1 [Entry 7, pure benzyl-Brilliant Blue G] |  | higher protein affinity (% staining) compared to BBG and Me-BBG | 52 | higher, even though not statistical significant | 6.0
